Source: publication PMC5407577, “Functional and genetic evidence that nucleoside transport is highly conserved in Leishmania species: Implications for pyrimidine-based chemotherapy” (International Journal for Parasitology: Drugs and Drug …, 2017)
Like-named read-outs stand apart in the source and are kept apart here.

Experiments:
LmexNT1 [1] = format: cell-based, Leishmania mexicana; conditions: inhibition of 1 μM [3H]-thymidine uptake, 20 s
Method: (§1) Using the standard uptake technique as described for T. brucei and Leishmania species ([Wallace et al., 2002], [Al-Salabi and De Koning, 2005], [Gudin et al., 2006]), the dose- or time-dependent uptake of radiolabeled permeants was investigated.
(§2) Briefly, cells in the mid-to-late logarithmic stage of growth were harvested by centrifugation for 10 min at 1500×g. The cells were washed twice with transport assay buffer (AB: 33 mM HEPES, 98 mM NaCl, 4.6 mM KCl, 0.55 mM CaCl2, 0.07 mM MgSO4, 5.8 mM NaH2PO4, 0.3 mM MgCl2, 23 mM NaHCO3, 14 mM glucose, pH 7.3), resuspended at a density of 10^8 cells ml^−1 in AB, and left for 20–30 min at room temperature to recover from centrifugation stress. One hundred microliters of cell suspension was incubated at ambient temperature for a predetermined time with 100 μl radiolabeled test compound, in the presence or absence of unlabeled substrate or other competitive inhibitors. The incubation was terminated by the addition of ice-cold stop solution (AB containing saturating levels, usually 10 mM, of unlabeled permeant) and centrifugation through oil for 1 min at 13,000 × g. […] Radioactivity was determined by liquid scintillation counting in a Beckman LS6000 TA scintillation counter. Saturation data, inhibition data, and time courses were plotted to equations for linear or non-linear regression (hyperbolic or sigmoid curves), as appropriate. All experiments were performed in triplicate and on at least three independent occasions.
L. donovani is known to express one pyrimidine nucleoside transporter, LdNT1, which also transports adenosine ([Vasudevan et al., 1998], [De Koning et al., 2005]). In order to investigate whether this model held true for L. mexicana, the uptake of [^3H]-thymidine was studied. […] Care was taken throughout this study that whenever inhibition constants (Ki) or Michaelis-Menten constants (Km) were determined the conditions used had been verified to be well within the linear range of uptake.

LmexNT1 [2] = assay: [3H]-adenosine uptake by L. mexicana promastigotes; format: cell-based, Leishmania mexicana; conditions: for Ki: inhibition of 0.05 μM [3H]-adenosine uptake, read-out: Ki
From the text: Using the standard uptake technique as described for T. brucei and Leishmania species ([Wallace et al., 2002], [Al-Salabi and De Koning, 2005], [Gudin et al., 2006]), the dose- or time-dependent uptake of radiolabeled permeants was investigated. The following radiolabels and specific activities were used: [^3H]-thymidine (Perkin Elmer; 56.6 Ci/mmol); [^3H]-adenosine (American Radiolabeled Chemicals UK; 40 Ci/mmol); [^3H]-uridine (American Radiolabeled Chemicals UK; 30 Ci/mmol); [^3H]-uracil (Perkin Elmer; 24.8 Ci/mmol); [^3H]-inosine (American Radiolabeled Chemicals UK; 20 Ci/mmol); [^3H]-5-fluorouracil (Moravek; 20 Ci/mmol).
as §2
We next investigated the transport of [^3H]-adenosine in L. mexicana promastigotes, which according to the efficient inhibition of [^3H]-thymidine by adenosine, should be taken up with high affinity.

[3] = system: L. mexicana promastigotes; format: cell-based, Leishmania mexicana; conditions: for inhibition of 0.25 μM [3H]-uridine transport: maximal inhibition, uracil up to 2.5 mM (Fig. 3B)
Method in brief: (§3)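 Mid-to-late log-phase parasites were washed and held at 10^8 cells ml^−1 in HEPES/bicarbonate buffer with glucose, pH 7.3, then incubated at ambient temperature with radiolabelled permeant, with or without unlabelled substrate or inhibitors. Uptake was stopped with ice-cold excess unlabelled permeant and oil centrifugation, then counted by scintillation; saturation, inhibition and time-course data fitted by regression, in triplicate.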

Lmex5F2′dURes = format: cell-based, Leishmania mexicana; conditions: 0.5 μM [3H]-uridine, 0.1 μM [3H]-adenosine, 0.25 μM [3H]-uracil
Method in brief: as §3

LmexNT1 [4] = format: cell-based, Leishmania mexicana; conditions: for Ki: inhibition of 0.25 μM [3H]-uridine uptake in the presence of 1 mM uracil
Method in brief: as §3

LmajUUT1 = assay: [3H]-uridine uptake by L. major promastigotes, high-affinity uracil-sensitive component; format: cell-based, Leishmania major; conditions: for Ki: inhibition of 0.25 μM [3H]-uridine uptake; for Km: double reciprocal plot, n = 3, read-out: Km (1)
Method: as §1, §2

LmajNT1 [5] = assay: [3H]-uridine uptake by L. major promastigotes, low-affinity component; format: cell-based, Leishmania major; conditions: for Ki: inhibition of 0.25 μM [3H]-uridine uptake
Method: as §1, §2

LmajNT1 [6] = assay: [3H]-thymidine uptake by L. major promastigotes; format: cell-based, Leishmania major; conditions: inhibition of 0.25 μM [3H]-thymidine uptake (total LmajNT1.1 + LmajNT1.2), 5 min
L. major promastigotes = assay: total [3H]-uridine uptake by L. major promastigotes; format: cell-based, Leishmania major
Method: as §1, §2

T. b. brucei strain B48 [7] = assay: [3H]-inosine uptake in non-transfected T. brucei B48; format: cell-based, Trypanosoma brucei brucei; conditions: 250 μM adenosine or 1 mM unlabeled inosine (Fig. 7B)
Method: as §1, §2

LmajNT2 = assay: [3H]-inosine transport by T. brucei B48 cells expressing LmajNT2; format: cell-based, Leishmania major; conditions: 250 μM adenosine
Method: Plasmid construction and transfection was performed according to [Munday et al. (2013)]. The nucleoside transporter genes were isolated from L. mexicana and L. major. […] The primers used in this study (Table S2) were designed to flank the gene of interest, one complementary to the sequence upstream of the 5′ end and the other complementary to the sequence downstream of the 3′ end. All of the nucleoside transporters genes were PCR-amplified from genomic DNA of each strain using the high-fidelity proof-reading polymerase Phusion (New England Biolabs) and cloned into the pGEMTeasy (Promega) vector prior to Sanger sequencing (Source BioScience, Glasgow, UK). […] After confirming the identity of each gene, the nucleoside transporter genes (LmajNT1A, LmajNT1B, LmajNT2, LmexNT1A, LmexNT1B, and LmexNT2) were ligated into the expression vector pHD1336 ([Biebinger et al., 1997]) and then were linearized with NotI digestion. All genes were verified by Sanger sequencing, prior to transfection into T. b. brucei clone B48. B48 parasites (1 × 10^7 cells) were washed into Human T Cell buffer for transfection using the desired cassette with an Amaxa Nucleofector using program X-001. Cells were transferred into pre-warmed HMI-9 medium and allowed to recover for 8–16 h at 37 °C and 5% CO2. Following recovery, transfectants were grown and cloned in selective medium containing 5 μg ml^−1 blasticidin S using limiting dilution.
as §1
Briefly, cells in the mid-to-late logarithmic stage of growth were harvested by centrifugation for 10 min at 1500×g. […] Radioactivity was determined by liquid scintillation counting in a Beckman LS6000 TA scintillation counter. […]

LdNT1.1 = system: LdNT1.1; parameters: method as in Vasudevan et al., 1998; Landfear, 2001; conditions: ref Vasudevan et al., 1998; Landfear, 2001; cited from earlier work
LdNT1.2 = system: LdNT1.2; parameters: method as in Vasudevan et al., 1998; Landfear, 2001; conditions: ref Vasudevan et al., 1998; Landfear, 2001; cited from earlier work
Lmex5FURes = format: cell-based, Leishmania mexicana; conditions: 0.5 μM radiolabel
Method in brief: as §3

LmexUU1 = format: cell-based, Leishmania mexicana
Method in brief: as §3

T. b. brucei strain B48 [8] = assay: microbe, parasite or virus in culture; format: cell-based; conditions: Trypanosoma brucei, read-out: inhibition of 0.5 μM [3H]-uridine uptake, 250 μM inhibitor
Method: as §1
as §2, with “All experiments were performed in triplicate and on at least three independent occasions.” left out

Lmaj5F2′dURes = format: cell-based, Leishmania major; conditions: 0.25 μM [3H]-uridine, 0.5 μM [3H]-uracil
Method: as §1, §2

Lmaj5FURes = format: cell-based, Leishmania major; conditions: 0.5 μM radiolabel
Method: as §1, §2

LmajU1 = system: LmajU1; parameters: method as in Papageorgiou et al., 2005; conditions: ref Papageorgiou et al., 2005; cited from earlier work
[9] = molecular target: P1 adenosine/inosine transporter; parameters: method as in De Koning and Jarvis, 1999; conditions: ref De Koning and Jarvis, 1999; cited from earlier work
[10] = [3H]-uridine, high affinity component

Nc1ncnc2c1ncn2[C@@H]1O[C@H](CO)[C@@H](O)[C@H]1O [adenosine]
Ki (LmexNT1 [1]): 0.25 ± 0.04 µM | rate of transport (LmexNT1 [2]; 0.1 μM [3H]-adenosine, linear over at least 30 s): 0.21 ± 0.01 pmol(10^7 cells)^−1s^−1 | Km (LmexNT1 [2]; [3H]-adenosine): 0.81 ± 0.16 µM | Vmax (LmexNT1 [2]; [3H]-adenosine): 1.11 ± 0.19 pmol(10^7 cells)^−1s^−1 | inhibition of 0.25 μM [3H]-uridine transport [3]: ~100% | uptake of radiolabel, reduced compared to WT control cells (Lmex5F2′dURes): 89% | Ki (LmexNT1 [4]): 0.39 ± 0.09 µM | Ki (LmajUUT1): 1.93 ± 0.49 µM | Ki (LmajNT1 [5]): 1.93 ± 0.49 µM | Ki (LmajNT1 [6]): 1.77 ± 0.21 µM | Ki (L. major promastigotes; complete inhibition of [3H]-uridine transport (both components)): 1.93 ± 0.49 µM | inhibition of 50 nM [3H]-inosine transport (T. b. brucei strain B48 [7]): fully inhibited | inhibition of 50 nM [3H]-inosine transport (LmajNT2): 57% | Km (LdNT1.1): ~0.2 µM | Km (LdNT1.2): ~5 µM

O=c1cc[nH]c(=O)[nH]1 [uracil]
Ki (LmexNT1 [1]): > 2500 µM | Ki (LmexNT1 [2]): > 2500 µM | inhibition of 0.25 μM [3H]-uridine transport [3]: 48% | Ki ([3]; read-out: Ki, uracil-sensitive uridine transporter, partial inhibition of 0.25 μM [3H]-uridine uptake, n = 5): 25.7 ± 6.6 µM | uptake of radiolabel, reduced compared to WT control cells (Lmex5F2′dURes): unaffected | uptake of radiolabel, reduced compared to WT control cells (Lmex5F2′dURes; listed as [^3H]-uracil): not significantly different | uptake of radiolabel, lower than in WT control cells (Lmex5FURes): 90.2% | Ki (LmexNT1 [4]): > 2500 µM | rate of transport (LmexUU1; 0.25 μM [3H]-uracil, linear to at least 10 min): 0.0020 ± 0.0002 pmol(10^7 cells)^−1s^−1 | rate of transport (LmexUU1; 0.5 μM [3H]-uracil, linear over 10 min (Fig. 4B legend)): 0.0020 ± 0.0002 pmol(10^7 cells)^−1s^−1 | rate of transport (LmexUU1; 1 μM [3H]-uracil, linear over 120 s): 0.0030 ± 0.0002 pmol(10^7 cells)^−1s^−1 | inhibition of 0.5 μM [3H]-uracil transport (LmexUU1; 1 mM unlabeled uracil): 95% | Vmax (LmexUU1; [3H]-uracil): 0.088 ± 0.010 pmol(10^7 cells)^−1s^−1 | Km (LmexUU1; [3H]-uracil, 4 min, n = 3): 29.7 ± 4.4 µM | Ki (LmajUUT1): 2.65 ± 0.6 µM | Ki (LmajNT1 [5]): > 1000 µM | Ki (LmajNT1 [6]): > 1000 µM | inhibition at 0.25 µM (L. major promastigotes; Leishmania major, 3 h, read-out: partial (maximal) inhibition of 0.25 μM [3H]-uridine transport): 77.2 ± 2.7% | inhibition at 250 µM (T. b. brucei strain B48 [8]): 75.7% | uptake of radiolabel, lower than in WT control cells (Lmaj5F2′dURes): 80% | uptake of radiolabel, lower than in WT control cells (Lmaj5F2′dURes; listed as [^3H]-uracil): 81.4% | uptake of radiolabel, lower than in WT control cells (Lmaj5FURes): 95.7% | Km (LmajU1): 0.32 µM

O=c1ccn([C@@H]2O[C@H](CO)[C@@H](O)[C@H]2O)c(=O)[nH]1 [uridine]
Ki (LmexNT1 [1]): 9.1 ± 0.6 µM | Ki (LmexNT1 [2]): 16.8 ± 1.3 µM | Km ([3]; read-out: Km for the uridine flux, total flux, no uracil, n = 5): 7.15 ± 0.9 µM | Vmax (LmexNT1 [4]; [3H]-uridine, in the presence of 1 mM uracil): 0.74 ± 0.13 pmol(10^7 cells)^−1s^−1 | Km (LmexNT1 [4]; [3H]-uridine, measured in the presence of 1 mM uracil): 13.3 ± 2.4 µM | Ki (LmexUU1; inhibition of [3H]-uracil uptake, 4 min): 2 ± 0.5 µM | maximal inhibition of [3H]-uracil transport (LmexUU1; n = 3): approximately 85% | Vmax (1) (LmajUUT1; [10]): 0.036 ± 0.004 pmol(10^7 cells)^−1s^−1 | Km (LmajUUT1; [3H]-uridine, high affinity component, listed as [^3H]-uridine): 3.12 ± 0.61 µM | Km (LmajUUT1; [10]): 3.1 ± 0.6 µM | Vmax (2) (LmajNT1 [5]; [3H]-uridine, low affinity component): 0.15 ± 0.04 pmol(10^7 cells)^−1s^−1 | Km (LmajNT1 [5]; [3H]-uridine, low affinity component, n = 3, read-out: Km (2)): 33.5 ± 7.3 µM | Km (L. major promastigotes; n = 3, read-out: apparent Km (single Michaelis-Menten saturation plot)): 7.3 ± 1.3 µM | Km (LdNT1.1): 5 µM | Km (LdNT1.2): 40 µM | Ki [9]: 830 µM
